The source of these data is patent publication US11192865B2, “Benzosulfonyl compounds” (Vivace Therapeutics, Inc., priority 2017, dated 2021).

SMILES strings stand for the structures. Bounds are passed on as bounds.

The test system of this experiment is 8XTBD luciferase reporter. The experiment in a line: YAP Reporter Assay. The format is cell-based. The settings on record: Homo sapiens, HEK-293T; HEK293T cells stably transfected with 8XTBD luciferase reporter and pRLTK; 24-hr incubation; starting from 3 μM, 1:3 dilution, 10 points; read-out: Firefly Luciferase IC50. Summed up: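 HEK293T cells stably carrying the 8XTBD firefly luciferase reporter and TK-renilla control received compounds at a 10-point, 1:3 series from 3 μM (final) in quadruplicate. After 24 h at 37° C, Dual-Glo luminescence was read. IC50 and maximal inhibition were reported separately for firefly and renilla signals.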
Background: In a reporter assay the amount or activity of a reporter protein is the signal.
By IC50 is commonly meant the concentration at which inhibition is half-maximal. In the case of `CNS(=O)(=O)c1ccc(NC2CCCCC2)c(-c2cn(C(C)C)cn2)c1` [Compound 113, 4-(cyclohexylamino)-3-(1-isopropyl-1H-imidazol-4-yl)-N-methylbenzenesulfonamide], the half-inhibitory concentration (IC50) is at most 100 nM.
Under `CCn1cncc1-c1cc(S(=O)(=O)NC)ccc1NC1CCCCC1` [Compound 114, 4-(cyclohexylamino)-3-(1-ethyl-1H-imidazol-5-yl)-N-methylbenzenesulfonamide] stands above 3000 nM.
Then `CNS(=O)(=O)c1ccc(Nc2ccc(C(F)(F)F)cc2)c(-c2nnn(CCOCc3ccccc3)n2)c1` [Compound 115, 3-(2-(2-(benzyloxy)ethyl)-2H-tetrazol-5-yl)-N-methyl-4-((4-(trifluoromethyl)phenyl)amino)benzenesulfonamide], with 100 to 1000 nM; and `CNS(=O)(=O)c1ccc(Nc2ccc(C(F)(F)F)cc2)c(-c2nnn(CCO)n2)c1` [Compound 116, 3-(2-(2-hydroxyethyl)-2H-tetrazol-5-yl)-N-methyl-4-((4-(trifluoromethyl)phenyl)amino)benzenesulfonamide], with at most 100 nM.
For the molecule `CNS(=O)(=O)c1ccc(Nc2cccc(F)c2)c(-c2nnn(C)n2)c1` [Compound 117, 4-((3-fluorophenyl)amino)-N-methyl-3-(2-methyl-2H-tetrazol-5-yl)benzenesulfonamide], the IC50 fell in the range of 100 to 1000 nM.
Turning to `CNS(=O)(=O)c1ccc(Nc2ccc(-c3ccccc3)cc2)c(-c2nnn(C)n2)c1` [Compound 128, N-methyl-3-(2-methyltetrazol-5-yl)-4-(4-phenylanilino) benzenesulfonamide], the IC50 was 1000 to 3000 nM.
Regarding `CNS(=O)(=O)c1ccc(Nc2ccc(Oc3ccccc3)cc2)c(-c2nnn(C)n2)c1` [Compound 130, N-methyl-3-(2-methyltetrazol-5-yl)-4-(4-phenoxyanilino) benzenesulfonamide], the IC50 lay in the range of 1000 to 3000 nM.
For the molecule `CNS(=O)(=O)c1ccc(Nc2cccc(-c3ccccc3)c2)c(-c2nnn(C)n2)c1` [Compound 131, N-methyl-3-(2-methyltetrazol-5-yl)-4-(3-phenylanilino) benzenesulfonamide], the IC50 was at most 100 nM.
Under `CNS(=O)(=O)c1ccc(Nc2ccc(C(F)(F)F)cc2)c(-c2nnc(N)o2)c1` [Compound 133, 3-(5-amino-1,3,4-oxadiazol-2-yl)-N-methyl-4-[4-(trifluoromethyl)anilino]benzene-sulfonamide] stands 100 to 1000 nM; under `CNS(=O)(=O)c1ccc(Nc2cccc(Oc3ccccc3)c2)c(-c2nnn(C)n2)c1` [Compound 134, N-methyl-3-(2-methyltetrazol-5-yl)-4-(3-phenoxyanilino)benzenesulfonamide], 100 to 1000 nM; under `CNS(=O)(=O)c1ccc(Nc2cccc(C(F)(F)F)c2)c(-c2nnn(Cc3ccccc3F)n2)c1` [Compound 136, 3-[2-[(2-Fluorophenyl)methyl]tetrazol-5-yl]-N-methyl-4-[3-(trifluoromethyl)anilino]benzene-sulfonamide], at most 100 nM.
In the case of `CNS(=O)(=O)c1ccc(Nc2ccc(C(F)(F)F)cc2)c(-c2nnn(Cc3ccccc3F)n2)c1` [Compound 137, 3-[2-[(2-Fluorophenyl)methyl]tetrazol-5-yl]-N-methyl-4-[4-(trifluoromethyl)anilino]benzene-sulfonamide], the half-inhibitory concentration (IC50) is at most 100 nM.
With `CNS(=O)(=O)c1ccc(Nc2ccc(Cl)cc2)c(-c2cn(C)cn2)c1` [Compound 139, 4-(4-chloroanilino)-N-methyl-3-(1-methylimidazol-4-yl)benzenesulfonamide], the IC50 is at most 100 nM.
Turning to `CNS(=O)(=O)c1ccc(Nc2ccc(Cl)c(Cl)c2)c(-c2cn(C)cn2)c1` [Compound 140, 4-(3,4-dichloroanilino)-N-methyl-3-(1-methylimidazol-4-yl)benzenesulfonamide], the IC50 is at most 100 nM.
In the case of `CNS(=O)(=O)c1ccc(Nc2cccc(SC(F)(F)F)c2)c(-c2cn(C)cn2)c1` [Compound 141, N-methyl-3-(1-methylimidazol-4-yl)-4-[3-(trifluoromethylsulfanyl)anilino] benzenesulfonamide], the IC50 is at most 100 nM.
For `CNS(=O)(=O)c1ccc(Nc2cc(Cl)cc(Cl)c2)c(-c2cn(C)cn2)c1` [Compound 142, 4-(3,5-dichloroanilino)-N-methyl-3-(1-methylimidazol-4-yl)benzenesulfonamide], the IC50 is at most 100 nM.
Under `CNS(=O)(=O)c1ccc(Nc2cccc(Cl)c2)c(-c2cn(C)cn2)c1` [Compound 143, 4-(3-Chloroanilino)-N-methyl-3-(1-methylimidazol-4-yl)benzenesulfonamide] stands at most 100 nM; under `CNS(=O)(=O)c1ccc(Nc2ccc(SC(F)(F)F)cc2)c(-c2cn(C)cn2)c1` [Compound 144, N-methyl-3-(1-methylimidazol-4-yl)-4-[4-(trifluoromethylsulfanyl)anilino] benzenesulfonamide], at most 100 nM.
For the molecule `CNS(=O)(=O)c1ccc(Nc2cc(Cl)c(Cl)c(Cl)c2)c(-c2cn(C)cn2)c1` [Compound 145, N-methyl-3-(1-methylimidazol-4-yl)-4-(3,4,5-trichloroanilino)benzenesulfonamide], the IC50 was at most 100 nM.
For the molecule `CNS(=O)(=O)c1ccc(Nc2cc(C(F)(F)F)cc(C(F)(F)F)c2)c(-c2cn(C)cn2)c1` [Compound 146, 4-[3,5-Bis(trifluoromethyl)anilino]-N-methyl-3-(1-methylimidazol-4-yl)benzenesulfonamide], the half-inhibitory concentration (IC50) lay in the range of 100 to 1000 nM.
Take `CNS(=O)(=O)c1ccc(Nc2ccc(Cl)c(C(F)(F)F)c2)c(-c2cn(C)cn2)c1` [Compound 147, 4-[4-Chloro-3-(trifluoromethyl)anilino]-N-methyl-3-(1-methylimidazol-4-yl)benzenesulfonamide]: the IC50 was at most 100 nM.
On to `CNS(=O)(=O)c1ccc(Nc2ccc(C(F)(F)F)c(Cl)c2)c(-c2cn(C)cn2)c1` [Compound 148, 4-[3-Chloro-4-(trifluoromethyl)anilino]-N-methyl-3-(1-methylimidazol-4-yl)benzenesulfonamide], for which the half-inhibitory concentration (IC50) was at most 100 nM.
Turning to `CNS(=O)(=O)c1ccc(Nc2c(F)cccc2F)c(-c2cn(C)cn2)c1` [Compound 149, 4-((2,6-Difluorophenyl)amino)-N-methyl-3-(1-methyl-1H-imidazol-4-yl)benzenesulfonamide], the IC50 is at most 100 nM.
Take `CNS(=O)(=O)c1ccc(N[C@H]2CC[C@@H](C(F)(F)F)CC2)c(-c2cn(C)cn2)c1` [Compound 150, N-methyl-3-(1-methyl-1H-imidazol-4-yl)-4-(((1s,4s)-4-(trifluoromethyl)cyclohexyl)amino) benzenesulfonamide]: the half-inhibitory concentration (IC50) is at most 100 nM.
Consider `CNS(=O)(=O)c1ccc(N[C@H]2CC[C@H](C(F)(F)F)CC2)c(-c2cn(C)cn2)c1` [Compound 151, N-methyl-3-(1-methyl-1H-imidazol-4-yl)-4-(((1r,4r)-4-(trifluoromethyl)cyclohexyl)amino) benzenesulfonamide], for which the IC50 is at most 100 nM.
With `CNS(=O)(=O)c1ccc(Nc2cccc(C(F)(F)F)c2)c(-c2ccnc(N)c2)c1` [Compound 152, 3-(2-Aminopyridin-4-yl)-N-methyl-4-((3-(trifluoromethyl)phenyl)amino) benzenesulfonamide], the IC50 was 1000 to 3000 nM.
